# Test results taken from patent US20140357688A1, “METHOD FOR INHIBITING EZH2 EXPRESSION IN BREAST CANCER CELLS” (Yung Shin Pharm. Ind. Co., Ltd., priority 2013, published 2014).
# Key:
# Format in all cases: cell-based, human
# Hs578T = assay: MTT cell viability assay
# Protocol: (§1) Human breast cancer cells, MDA-MB-468, MDA-MB-157, MDA-MB-231, MDA-MB-453, and Hs578T, and immortalized mammary epithelial cell lines, 184A1 and MCF-10A, were obtained from American Type Culture Collection (Manassas, Va., USA). MDA-MB-468, MDA-MB-157, MDA-MB-231, and MDA-MB-453 were cultured in DMEM/F12 medium supplemented with 10% FBS, 100 U/ml penicillin, and 100 μg/ml streptomycin. Hs578T was cultured in RPMI 1640 medium containing 10% FBS, 2 mM L-glutamine, 100 U/ml penicillin, and 100 μg/ml streptomycin. 184A1 and MCF-10A were cultured in DMEM/F12 medium supplemented with 5% horse serum, 0.5 μg/ml hydrocortisone, 10 μg/ml insulin, 20 ng/ml epidermal growth factor, 0.1 μg/ml cholera enterotoxin, 2 mM L-glutamine, 100 U/ml penicillin, and 100 μg/ml streptomycin. All cells were maintained in a humidified incubator containing 5% CO2. For hypoxia treatment, cells were incubated in a chamber flushed with 1% 02, 5% CO2, and 94% N2 at 37° C.
# (§2) Cell viability was measured by 3-(4,5-Dimethyl-2-thiazolyl)2,5-diphenyl-2H-tetrazolium bromide (MTT) assay.
# MDA-MB-453 = assay: MTT cell viability assay
# Protocol: as §1, §2
# MDA-MB-468 cells [1] = assay: Cell cycle analysis by flow cytometry; conditions: 3 μM YC-1, 6 h post-treatment
# Protocol: (§3) (A) Cells were treated with indicated concentration of YC-1 for 6, 24, and 48 h. Cell viability was determined by MTT method. (B) MDA-MB-468 cells were treated with 3 μM YC-1 for 0, 6, and 12 h, and then stained with fluorescence diacetate (FDA) and propidium iodide (PI). Cell morphology was assessed by fluorescence microscopy with magnification ×20 (upper 3 rows) or ×40 (lowest row). (C) MDA-MB-468 cells were treated with 3 μM YC-1 for 24 h, cells were lysed and subjected to western blot analysis described in Materials and Methods. β-actin is a loading control. Blots were representative of results from three independent experiments. (D) Cells were treated with vehicle (DMSO, as control) or 3 μM YC-1 for 6 h. The cell cycles were analyzed by flow cytometry. (E) Cells were treated with indicated concentration of YC-1 and then performed with clonogenic assay.
# Cells (1×10^6) treated with YC-1 were fixed in cold 70% ethanol overnight. Cells were stained with staining solution (0.5% Triton X-100, 2 mg/ml propidium iodide, 1 mg/ml RNase A in 1×PBS), followed by analysis on a FACSCalibur flow cytometer (BD Biosciences, Mountain View, Calif., USA).
# MDA-MB-468 cells [2] = assay: Colony formation (clonogenic) assay
# Protocol: as §3
# After exposure to YC-1, cells were collected and washed extensively with PBS. Five hundred cells per well was seeded onto 6-well plates and maintained in a 37° C., 5% CO2 incubator. Three weeks later, colonies were fixed with formaldehyde (3.7%, v/v) and stained with crystal violet (0.5%, w/v), then counted.
# EED = assay: Western blot of PRC2 protein expression in MDA-MB-468 cells; conditions: 24 h
# Protocol: (§4) (A)(B) Cells were treated with indicated concentration of YC-1 for 24 h (A) or 3 μM of YC-1 for indicated time (B). Cells were harvested and performed with western blotting analysis. […] The levels of protein expression were quantitated and shown under blots. (C) Cells were transfected with EZH2 shRNA for 0, 1, 2, 3, and 4 days and collected for determination of cell viability (left) and protein expression (right). (D)(E) After 4 days of EZH2 knockdown, cells were incubated with 3 μM YC-1 for 4 h and detected cell viability (D) and protein contents (E). (F) Tumor specimens were isolated and protein was extracted for western blot analysis.
# (§5) Cells were lysed in PBS containing proteinase inhibitor and phosphatase inhibitors and sonication. Protein concentration was measured using the Bio-Rad protein assay kit (Bio-Rad Laboratories, Hercules, Calif., USA). Lysate protein was separated by electrophoresis of SDS-PAGE and transferred to Immobilon P membrane (EMD Millipore). The membranes were incubated with appropriate primary antibodies and horseradish peroxidase-conjugated secondary antibodies (EMD Millipore). The signaling was visualized using Chemiluminescence substrate kit (EMD Millipore) and collected by the Luminesence image analyzer, LAS4000 (Fuji Photo Film Co., Tokyo, Japan). The band intensities were analyzed and quantified by the Multi Gauge software (Fuji Photo Film).
# RbAp48 = assay: as above; conditions: 24 h
# Protocol: as §4, §5
# SUZ12 = assay: as above; conditions: 24 h
# Protocol: as §4, §5
# Src, Raf-1, and MEK = assay: Western blot of Src, Raf-1 and MEK activation; conditions: 3 μM YC-1
# Protocol: (A) Cells were pretreated with DMSO (as control), Bay-43-9006 (Bay, 10 μM), farnyesyl thiosalicylic acid (FTS, 10 μM), Src inhibitor I (SrcI, 10 μM), and genistein (Gen, 10 μM), then followed by YC-1 (3 μM) incubation for 6 h. Cells were harvested and lysed for western blot analysis (left, right) and cell viability (middle). The levels of protein expression were quantitated and shown under blots. (B) MDA-MB-468 cells were transfected with shRNA of Raf-1 or Src. After stimulation of 3 μM YC-1 for 4 h, cell protein was subjected to western blot analysis. (C) Cells were incubated with 3 μM YC-1 for indicated time and then lysed for detection of Src, Raf-1, and MEK activation by using specific anti-phosphorylated antibodies. (D) Cells were treated with 3 μM YC-1 for indicated time. Cells were lysed and detected Ras activation by using Raf-RBD conjugated agarose to pull-down Ras-GTP. The total Ras in cell lysate was also detected. […] Cells were lysed and protein expression was determined by western blot analysis. […]
# Cells were lysed in PBS containing proteinase inhibitor and phosphatase inhibitors and sonication. Protein concentration was measured using the Bio-Rad protein assay kit (Bio-Rad Laboratories, Hercules, Calif., USA). […] The band intensities were analyzed and quantified by the Multi Gauge software (Fuji Photo Film).
# EGFR = assay: Western blot of EGFR phosphorylation and expression
# Protocol: as §5, with “Cells were incubated with 3 μM YC-1 for indicated time. Cells were harvested and subjected to western blot analysis for the detection of protein expression. Cells” for “Cells”
structure (smiles),measurement,setting,value
"OCc1ccc(-c2nn(Cc3ccccc3)c3ccccc23)o1 [YC-1, 3-(5′-hydroxymethyl-2′-furyl)-1-benzyl indazole]",effect on cell viability,Hs578T,no effect
same,effect on cell viability,MDA-MB-453,no effect
same,sub-G1 population,MDA-MB-468 cells [1]; control 5.9%,13.5%
same,percentage of cells at the G1 phase,MDA-MB-468 cells [1]; control 57.2%,64.8%
same,clonogenic activity,MDA-MB-468 cells [2],potent ability in attenuation of tumor formation
same,EED protein expression,EED,no effect
same,RbAp48 protein expression,RbAp48,effectively concentration-dependent suppression
same,SUZ12 protein expression,SUZ12,effectively concentration-dependent suppression
same,"phosphorylated activation of Src, Raf-1, and MEK","Src, Raf-1, and MEK",time-dependent phosphorylated activation
same,EGFR phosphorylation,EGFR; 3 μM YC-1,rapidly induced EGFR phosphorylation
same,EGFR protein expression,"EGFR; 3 μM YC-1, after 6 h treatment",significant decrease
